The values below come from US20080096811A1, “[…] VPAC2 RECEPTOR PEPTIDE AGONISTS” (Eli Lilly and Company, published 2008).

Where a SMILES comes first, the peptide text is derived from it. Where no end group is shown, it is not given here. The star is where a group is joined. Hexanoyl = CCCCCC(=O)*

As a reminder, the EC50 is the concentration giving half of the maximal effect. A higher EC50 goes with a need for much substance. As usually defined, the IC50 is the concentration needed to halve the response being measured. A lower IC50 goes with inhibition by little substance.

For data set [1], the target named is T1, human VPAC2 (Homo sapiens, UniProt P41587).
T1 construct: expressed in transfected cells
T1 sequence (P41587 24-438): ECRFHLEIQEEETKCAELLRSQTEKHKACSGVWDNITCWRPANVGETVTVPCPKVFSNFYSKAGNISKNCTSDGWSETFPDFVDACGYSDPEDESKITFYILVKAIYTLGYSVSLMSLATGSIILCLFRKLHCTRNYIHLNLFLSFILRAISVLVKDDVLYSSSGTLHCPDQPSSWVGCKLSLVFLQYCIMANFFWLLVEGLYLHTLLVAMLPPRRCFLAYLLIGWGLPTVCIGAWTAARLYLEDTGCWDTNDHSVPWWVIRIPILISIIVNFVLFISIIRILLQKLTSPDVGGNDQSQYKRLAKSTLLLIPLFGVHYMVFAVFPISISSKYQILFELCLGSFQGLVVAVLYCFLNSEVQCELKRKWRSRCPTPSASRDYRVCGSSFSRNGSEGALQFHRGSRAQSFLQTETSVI
In words: DiscoveRx cAMP in vitro potency, human VPAC2. Type of data set: cell-based. As for the experimental part: (§1) Also, the cells are washed twice. The cells are incubated in assay buffer plus IBMX for 15 minutes at room temperature. […] The stimuli are present for 30 minutes. Then, the assay buffer is gently removed. […] At day 3, the assay described above for the VPAC2 receptor cell line is performed.

For data set [2], the target named is T1, human VPAC2. In words: Alpha screen cAMP in vitro potency, human VPAC2. Type of data set: cell-based.
Data set [3] concerns the target T2, human PAC1 (Homo sapiens, UniProt P41586). Briefly: cell-based. As for the experimental part: as §1
Data set [4] concerns the target T1, human VPAC2. Briefly: Filter binding assay, human VPAC2 membranes, 125I-labeled VIP tracer.
For data set [5], the target named is T2, human PAC1. Briefly: biochemical. As for the experimental part:
For this assay, the solutions and equipment include:
Presoak solution: 0.5% Polyethyleneamine in Aqua dest.
Buffer for flushing filter plates: 25 mM […] pH 7.4
Blocking buffer: 25 mM HEPES pH 7.4; 0.2% protease free BSA
Assay buffer: 25 mM HEPES pH 7.4; 0.5% protease free BSA
Dilution and assay plate: PS-Microplate, U form
Filtration Plate Multiscreen FB Opaque Plate; […] Type B Glasfiber filter
In order to prepare the filter plates, aspirate the presoak solution by vacuum filtration. Flush the plates twice with 200 μL flush buffer. Add 200 μL blocking buffer to the filter plate. The filter plate is then incubated […] for 1 hour at room temperature.
Fill the assay plate with 25 μL assay buffer, 25 μL membranes (2.5 μg) suspended in assay buffer, 25 μL compound (agonist) in assay buffer, and 25 μL tracer (about 40000 cpm) in assay buffer. Incubate the filled plate for 1 hour with shaking.
Conduct the transfer from assay plate to filter plate. Aspirate the blocking buffer by vacuum filtration and wash two times with flush buffer. Transfer 90 μL from the assay plate to the filter plate. Aspirate the 90 μL transferred from assay plate and wash three times with 200 μL flush buffer. Remove the plastic support. Dry for 1 hour at 60° C. Add 30 μL Microscint. Perform the count.

A further data set has as its system Normal Wistar rats. In words: Intravenous glucose tolerance test (IVGTT). As to conditions: Wistar rat, insulin. Type of data set: in vivo. As for the experimental part: Intravenous glucose tolerance test (IVGTT): Normal Wistar rats are fasted overnight and are anesthetized prior to the experiment. A blood sampling catheter is inserted into the rats. The compound is given in the jugular vein. Blood samples are taken from the carotid artery. A blood sample is drawn immediately prior to the injection of glucose along with the compound. After the initial blood sample, glucose mixed with compound is injected intravenously (i.v.). A glucose challenge of 0.5 g/kg body weight is given, injecting a total of 1.5 mL vehicle with glucose and agonist per kg body weight. The peptide concentration vary to produce the desired dose in μg/kg. Blood samples are drawn at 2, 4, 6 and 10 minutes after giving glucose. The control group of animals receives the same vehicle along with glucose, but with no compound added. In some instances, a 30 minute post-glucose blood sample is drawn. Aprotinin is added to the blood sample (250 kIU/ml blood). The serum is then analyzed for glucose and insulin using standard methodologies.
The assay uses a formulated and calibrated peptide stock in PBS. Normally, this stock is a prediluted 100 μM stock. However, a more concentrated stock with approximately 1 mg agonist per mL is used. The specific concentration is always known. Variability in the maximal response is mostly due to variability in the vehicle dose.

The conditions of data set [6]: rat serum, 72 hours.
Method: The rat serum is stored at 4° C. until use and is used within two weeks.
On Day 0, prepare two 100 μL aliquots of 10 μM peptide in rat serum by adding 10 μL peptide stock to 90 μL rat serum for each aliquot. Add 250 kIU aprotinin/mL to one of these aliquots. Store the aliquot with aprotinin at 4° C. Store the aliquot without aprotinin at 37° C. Allow the aliquots to incubate for 18 hours.
On Day 1, after incubation of the aliquots prepared on day 0 for 18 hours, prepare an incubation buffer containing PBS+1.3 mM CaCl2, 1.2 mM MgCl2, 2 mM glucose, and 0.25 mM IBMX. Prepare a plate with 11 serial 5× dilutions of peptide for the 4° C. and 37° C. aliquot for each peptide studied. […] Wash the plate(s) with cells twice in incubation buffer. Allow the plates to hold 50 μL incubation media per well for 15 minutes. Transfer 50 μL solution per well to the cells from the plate prepared with 11 serial 3× dilutions of peptide for the 4° C. and 37° C. aliquot for each peptide studied, using the maximal concentrations that are indicated by the primary screen, in duplicate. This step dilutes the peptide concentration by a factor of two. Incubate in room temperature for 30 minutes. Remove the supernatant. Add 40 μL/well of the DiscoveRx antibody/extraction buffer. Incubate on the shaker (300 rpm) for 1 hour. Proceed as normal with the DiscoveRx kit. Include cAMP standards in column 12. […]
Data set [7] addresses T3, human VPAC1 (Homo sapiens, UniProt P32241).
T3 sequence (P32241 31-457): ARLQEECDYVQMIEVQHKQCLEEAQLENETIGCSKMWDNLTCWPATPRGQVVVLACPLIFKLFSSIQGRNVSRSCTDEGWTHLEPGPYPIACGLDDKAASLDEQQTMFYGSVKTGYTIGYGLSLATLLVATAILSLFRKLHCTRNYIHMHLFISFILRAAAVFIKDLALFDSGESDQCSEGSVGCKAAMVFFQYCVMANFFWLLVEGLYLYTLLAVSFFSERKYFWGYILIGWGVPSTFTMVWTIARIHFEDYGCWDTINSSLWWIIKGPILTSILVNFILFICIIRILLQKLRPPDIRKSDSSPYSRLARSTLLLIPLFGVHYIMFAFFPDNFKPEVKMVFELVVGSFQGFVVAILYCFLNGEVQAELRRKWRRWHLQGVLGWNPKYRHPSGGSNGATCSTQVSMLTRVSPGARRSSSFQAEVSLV
In words: Filter binding assay, human VPAC1 membranes, 125I-labeled VIP tracer. Further details: expressed in transfected cells.

Data set [8] addresses T3, human VPAC1. Briefly: DiscoveRx cAMP in vitro potency, human VPAC1. Type of data set: cell-based. Details: expressed in transfected cells; host or cells: CHO-PO, transient transfection (Lipofectamine). As for the experimental part:
as §1

The target of a further data set is human PAC1 receptor (human, UniProt P41586).
Chain of human PAC1 receptor (P41586 21-468): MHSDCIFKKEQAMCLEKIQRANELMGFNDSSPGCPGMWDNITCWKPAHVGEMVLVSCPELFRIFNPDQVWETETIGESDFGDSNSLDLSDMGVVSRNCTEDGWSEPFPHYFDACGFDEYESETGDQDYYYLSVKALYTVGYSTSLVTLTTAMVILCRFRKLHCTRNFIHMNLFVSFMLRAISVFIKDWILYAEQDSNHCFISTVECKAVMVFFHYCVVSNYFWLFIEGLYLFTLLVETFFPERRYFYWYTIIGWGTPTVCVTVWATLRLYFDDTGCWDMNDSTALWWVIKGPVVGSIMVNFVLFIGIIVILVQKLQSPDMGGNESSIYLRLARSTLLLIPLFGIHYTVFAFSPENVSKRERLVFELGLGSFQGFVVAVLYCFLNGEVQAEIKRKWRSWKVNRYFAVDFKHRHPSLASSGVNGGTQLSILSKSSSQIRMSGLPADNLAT
Data set [9] deals with T4, human VPAC1 receptor (human) (UniProt P32241).
T4 sequence: T3 sequence (P32241 31-457)

In data set [10] the target is T5, human VPAC2 receptor (human) (UniProt P41587).
T5 sequence: T1 sequence (P41587 24-438)

In the next data set the target is T6, rat VPAC1 receptor (rat, UniProt P30083).
T6 sequence: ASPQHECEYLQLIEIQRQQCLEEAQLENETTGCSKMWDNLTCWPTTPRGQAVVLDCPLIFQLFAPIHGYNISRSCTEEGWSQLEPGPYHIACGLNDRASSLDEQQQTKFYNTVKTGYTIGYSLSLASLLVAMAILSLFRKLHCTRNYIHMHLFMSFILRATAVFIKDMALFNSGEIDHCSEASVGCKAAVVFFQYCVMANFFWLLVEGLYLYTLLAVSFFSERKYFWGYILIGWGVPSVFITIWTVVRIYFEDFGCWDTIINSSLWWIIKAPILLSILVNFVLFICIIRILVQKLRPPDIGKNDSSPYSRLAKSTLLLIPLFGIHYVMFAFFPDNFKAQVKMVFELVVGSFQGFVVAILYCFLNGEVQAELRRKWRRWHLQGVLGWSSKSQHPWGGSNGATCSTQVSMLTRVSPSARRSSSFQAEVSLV
In words: cell-based or functional assay.

For another data set, the target named is T7, rat VPAC2 receptor (rat, UniProt P35000).
T7 sequence: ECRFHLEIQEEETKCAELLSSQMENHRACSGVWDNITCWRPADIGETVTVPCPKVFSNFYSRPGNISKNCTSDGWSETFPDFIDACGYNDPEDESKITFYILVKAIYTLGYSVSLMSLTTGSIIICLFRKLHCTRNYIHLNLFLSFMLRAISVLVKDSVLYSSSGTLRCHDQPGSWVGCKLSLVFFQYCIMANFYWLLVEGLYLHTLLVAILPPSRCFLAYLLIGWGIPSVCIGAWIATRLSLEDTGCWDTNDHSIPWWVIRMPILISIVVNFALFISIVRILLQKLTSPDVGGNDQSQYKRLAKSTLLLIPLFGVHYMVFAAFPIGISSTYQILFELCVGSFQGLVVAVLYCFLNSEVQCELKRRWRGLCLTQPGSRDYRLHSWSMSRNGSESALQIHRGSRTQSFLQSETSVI
In words: cell-based or functional assay.

T2 sequence (P41586 21-468): as the sequence (P41586 21-468) above

Regarding `CCCCCC(=O)N[C@@H](Cc1c[nH]cn1)C(=O)N[C@@H](CO)C(=O)N[C@@H](CC(=O)O)C(=O)N[C@@H](C)C(=O)N[C@H](C(=O)N[C@@H](Cc1ccccc1)C(=O)N[C@H](C(=O)N[C@@H](CC(=O)O)C(=O)N[C@@H](CC(N)=O)C(=O)N[C@@H](Cc1ccc(O)cc1)C(=O)N[C@H](C(=O)N[C@@H](CCCNC(=N)N)C(=O)N[C@@H](CC(C)C)C(=O)N[C@@H](CCCNC(=N)N)C(=O)N[C@@H](CCCCN)C(=O)N[C@@H](CCC(N)=O)C(=O)N[C@H](C(=O)N[C@@H](C)C(=O)N[C@@H](C)C(=O)N[C@@H](CCCCN)C(=O)N[C@@H](CCCCN)C(=O)N[C@@H](Cc1ccc(O)cc1)C(=O)N[C@@H](CC(C)C)C(=O)N[C@@H](CCC(N)=O)C(=O)N[C@@H](CO)C(=O)N[C@H](C(=O)N[C@@H](CCCCN)C(=O)N[C@@H](CC(N)=O)C(=O)N[C@@H](CO)C(=O)N[C@@H](CCCNC(=N)N)C(=O)N[C@H](C(=O)N[C@@H](CO)C(=O)N1CCC[C@H]1C(=O)N1CCC[C@H]1C(=O)N1CCC[C@H]1C(N)=O)[C@@H](C)O)[C@@H](C)CC)C(C)C)[C@@H](C)O)[C@@H](C)O)C(C)C` [Agonist P30] (Hexanoyl-HSDAVFTDNYTRLRKQVAAKKYLQSIKNSRTSPPP-NH2), the EC50 on human VPAC2 [1] was 0.09 nM; at human VPAC2 [2], 0.08 nM; on human PAC1 [3] it was 27 nM; at human VPAC1 [8], 6.45 nM. For the same molecule, the 50% inhibitory concentration (IC50) on human VPAC2 [4] worked out at 0.22 nM; on human PAC1 [5], 214 nM; on human VPAC1 [7] it was 33.8 nM. Besides, the “% increase AUC: Dose = 0.1 μg/kg” value in the data set on Normal Wistar rats (dose 0.1 μg/kg) is 67%. Further, the “% increase AUC: Dose = 0.5 μg/kg” value in the data set with Normal Wistar rats (dose 0.5 μg/kg) is 241%. In addition, the “% increase AUC: Dose = 10 μg/kg” value with Normal Wistar rats (dose 10 μg/kg) amounted to 378%. Besides, the “Rat Serum Stability (Estimated purity in % after 72 hours)” value in data set [6] is given as 1.0%.
For the molecule “Ac-HSDAVFTDNYTRLRKQVAAKKYLQSIKNSRTSPPP-NH2 [Agonist P32]”, the 50% effective concentration (EC50) at human VPAC2 [1] came out at 0.65 nM; on human VPAC2 [2], 0.32 nM; on human PAC1 [3], 125 nM; on human VPAC1 [8], 8.24 nM. For the same molecule, the IC50 amounted to 0.89 nM on human VPAC2 [4] and 38.3 nM on human VPAC1 [7].
Take “HSDAVFTDNYTRLRKQVAAKKYLQSIKNSRTSPPP-NH2 [Agonist P5]”: the concentration for a half-maximal effect (EC50) on human VPAC2 [1] came out at 1.21 nM; on human VPAC2 [2] it was 1.5 nM; on human PAC1 [3], 30 nM; at human VPAC1 [8] it was 1.1 nM. In addition, the IC50 at human VPAC2 [4] came to 0.67 nM; against human PAC1 [5], 234 nM; at human VPAC1 [7], 56.7 nM.

B1: P30 (peptide)
peptide: Hexanoyl-HSDAVFTDNYTRLRKQVAAKKYLQSIKNSRTSPPP-NH2
SMILES: CCCCCC(=O)N[C@@H](Cc1c[nH]cn1)C(=O)N[C@@H](CO)C(=O)N[C@@H](CC(=O)O)C(=O)N[C@@H](C)C(=O)N[C@H](C(=O)N[C@@H](Cc1ccccc1)C(=O)N[C@H](C(=O)N[C@@H](CC(=O)O)C(=O)N[C@@H](CC(N)=O)C(=O)N[C@@H](Cc1ccc(O)cc1)C(=O)N[C@H](C(=O)N[C@@H](CCCNC(=N)N)C(=O)N[C@@H](CC(C)C)C(=O)N[C@@H](CCCNC(=N)N)C(=O)N[C@@H](CCCCN)C(=O)N[C@@H](CCC(N)=O)C(=O)N[C@H](C(=O)N[C@@H](C)C(=O)N[C@@H](C)C(=O)N[C@@H](CCCCN)C(=O)N[C@@H](CCCCN)C(=O)N[C@@H](Cc1ccc(O)cc1)C(=O)N[C@@H](CC(C)C)C(=O)N[C@@H](CCC(N)=O)C(=O)N[C@@H](CO)C(=O)N[C@H](C(=O)N[C@@H](CCCCN)C(=O)N[C@@H](CC(N)=O)C(=O)N[C@@H](CO)C(=O)N[C@@H](CCCNC(=N)N)C(=O)N[C@H](C(=O)N[C@@H](CO)C(=O)N1CCC[C@H]1C(=O)N1CCC[C@H]1C(=O)N1CCC[C@H]1C(N)=O)[C@@H](C)O)[C@@H](C)CC)C(C)C)[C@@H](C)O)[C@@H](C)O)C(C)C
In the case of B1, the EC50 (nM) for cAMP generation, DiscoveRx was found to be 27 nM in the data set with human PAC1 receptor, 6.45 nM in [9] and 0.09 nM in data set [10]. The molecule further registered an EC50 (nM) for cAMP generation, Alpha Screen in data set [10] of 0.08 nM. Also, in the data set with rat VPAC1 receptor, the “EC50 for cAMP generation, DiscoveRx” value turned out to be 0.62 nM.
For HSDAVFTDNYTRLRKQVAAKKYLQSIKNSRTSPPP-NH2 [P5], the EC50 (nM) for cAMP generation, DiscoveRx with human PAC1 receptor was 30 nM; in [9] it was 1.1 nM; in data set [10], 1.21 nM. In addition, the EC50 (nM) for cAMP generation, Alpha Screen in data set [10] amounted to 1.5 nM. Moreover, the “EC50 for cAMP generation, DiscoveRx” value was 2.23 nM with rat VPAC2 receptor and 0.96 nM with rat VPAC1 receptor.
